Assay results published in PubChem BioAssay AID1259407 (Chemical Carcinogenesis Research Information System (CCRIS), 2018).
Calls of active or inactive are those of the source. How the calls were made is not given here.

Test system: CCRIS mutagenicity, Ames/micronucleus/aberration tests
Assay: CCRIS mutagenicity studies
[1] = Test System: AMES SALMONELLA TYPHIMURIUM, Strain/Indicator: TA98, Metabolic Activation: NONE, Method: STANDARD PLATE
[2] = Test System: AMES SALMONELLA TYPHIMURIUM, Strain/Indicator: TA102, Metabolic Activation: NONE, Method: STANDARD PLATE
[3] = Test System: AMES SALMONELLA TYPHIMURIUM, Strain/Indicator: TA1535, Metabolic Activation: NONE, Method: STANDARD PLATE
[4] = Test System: AMES SALMONELLA TYPHIMURIUM, Strain/Indicator: TA1537, Metabolic Activation: NONE, Method: STANDARD PLATE
[5] = Test System: AMES SALMONELLA TYPHIMURIUM, Strain/Indicator: TA98, Metabolic Activation: RAT, LIVER, S-9, AROCLOR 1254, Method: STANDARD PLATE
[6] = Test System: AMES SALMONELLA TYPHIMURIUM, Strain/Indicator: TA100, Metabolic Activation: RAT, LIVER, S-9, AROCLOR 1254, Method: STANDARD PLATE
[7] = Test System: AMES SALMONELLA TYPHIMURIUM, Strain/Indicator: TA1537, Metabolic Activation: RAT, LIVER, S-9, AROCLOR 1254, Method: STANDARD PLATE

## CCOP(=S)(OCC)Oc1cc(C)nc(C(C)C)n1
Test System: AMES SALMONELLA TYPHIMURIUM, Strain/Indicator: TA97, Metabolic Activation: HAMSTER, LIVER, S-9, AROCLOR 1254 (10 OR 30%), Method: PREINCUBATION
  mutagenic call: inactive; negative
Test System: AMES SALMONELLA TYPHIMURIUM, Strain/Indicator: TA97, Metabolic Activation: NONE, Method: PREINCUBATION
  mutagenic call: inactive; negative
Test System: AMES SALMONELLA TYPHIMURIUM, Strain/Indicator: TA97, Metabolic Activation: RAT, LIVER, S-9, AROCLOR 1254 (10 OR 30%), Method: PREINCUBATION
  mutagenic call: inactive; negative
Test System: AMES SALMONELLA TYPHIMURIUM, Strain/Indicator: TA98, Metabolic Activation: HAMSTER, LIVER, S-9, AROCLOR 1254 (10 OR 30%), Method: PREINCUBATION
  mutagenic call: inactive; negative
Test System: AMES SALMONELLA TYPHIMURIUM, Strain/Indicator: TA98, Metabolic Activation: NONE, Method: PREINCUBATION
  mutagenic call: inactive; negative
[1]
  mutagenic call: inactive; negative
Test System: AMES SALMONELLA TYPHIMURIUM, Strain/Indicator: TA98, Metabolic Activation: RAT, LIVER, S-9, AROCLOR 1254 (10 OR 30%), Method: PREINCUBATION
  mutagenic call: inactive; negative
Test System: AMES SALMONELLA TYPHIMURIUM, Strain/Indicator: TA98, Metabolic Activation: S-9, NADPH GENERATING SYSTEM, Method: STANDARD PLATE
  mutagenic call: inactive; negative
Test System: AMES SALMONELLA TYPHIMURIUM, Strain/Indicator: TA100, Metabolic Activation: HAMSTER, LIVER, S-9, AROCLOR 1254 (10 OR 30%), Method: PREINCUBATION
  mutagenic call: inactive; negative
Test System: AMES SALMONELLA TYPHIMURIUM, Strain/Indicator: TA100, Metabolic Activation: NONE, Method: PREINCUBATION
  mutagenic call: inactive; negative
Test System: AMES SALMONELLA TYPHIMURIUM, Strain/Indicator: TA100, Metabolic Activation: RAT, LIVER, S-9, AROCLOR 1254 (10 OR 30%), Method: PREINCUBATION
  mutagenic call: inactive; negative
[2]
  mutagenic call: inactive; negative
Test System: AMES SALMONELLA TYPHIMURIUM, Strain/Indicator: TA102, Metabolic Activation: S-9, NADPH GENERATING SYSTEM, Method: STANDARD PLATE
  mutagenic call: inactive; negative
Test System: AMES SALMONELLA TYPHIMURIUM, Strain/Indicator: TA1535, Metabolic Activation: HAMSTER, LIVER, S-9, AROCLOR 1254 (10 OR 30%), Method: PREINCUBATION
  mutagenic call: inactive; negative
Test System: AMES SALMONELLA TYPHIMURIUM, Strain/Indicator: TA1535, Metabolic Activation: NONE, Method: PREINCUBATION
  mutagenic call: inactive; negative
[3]
  mutagenic call: inactive; negative
Test System: AMES SALMONELLA TYPHIMURIUM, Strain/Indicator: TA1535, Metabolic Activation: RAT, LIVER, S-9, AROCLOR 1254 (10 OR 30%), Method: PREINCUBATION
  mutagenic call: inactive; negative
Test System: AMES SALMONELLA TYPHIMURIUM, Strain/Indicator: TA1535, Metabolic Activation: S-9, NADPH GENERATING SYSTEM, Method: STANDARD PLATE
  mutagenic call: inactive; negative
[4]
  mutagenic call: inactive; negative
Test System: AMES SALMONELLA TYPHIMURIUM, Strain/Indicator: TA1537, Metabolic Activation: S-9, NADPH GENERATING SYSTEM, Method: STANDARD PLATE
  mutagenic call: inactive; negative
Test System: E. COLI, Strain/Indicator: WP2 UVRA, Metabolic Activation: HAMSTER, LIVER, S-9, AROCLOR 1254, Method: STANDARD PLATE
  mutagenic call: inactive; negative
Test System: E. COLI, Strain/Indicator: WP2 UVRA, Metabolic Activation: HAMSTER, LIVER, S-9, Method: STANDARD PLATE
  mutagenic call: inactive; negative
Test System: E. COLI, Strain/Indicator: WP2 UVRA, Metabolic Activation: MOUSE, LIVER, S-9, AROCLOR 1254, Method: STANDARD PLATE
  mutagenic call: inactive; negative
Test System: E. COLI, Strain/Indicator: WP2 UVRA, Metabolic Activation: MOUSE, LIVER, S-9, Method: STANDARD PLATE
  mutagenic call: inactive; negative
Test System: E. COLI, Strain/Indicator: WP2 UVRA, Metabolic Activation: NONE, Method: STANDARD PLATE
  mutagenic call: inactive; negative
Test System: E. COLI, Strain/Indicator: WP2 UVRA, Metabolic Activation: RAT, LIVER, S-9, AROCLOR 1254, Method: STANDARD PLATE
  mutagenic call: inactive; negative
Test System: E. COLI, Strain/Indicator: WP2 UVRA, Metabolic Activation: RAT, LIVER, S-9, Method: STANDARD PLATE
  mutagenic call: inactive; negative

## CCC(=O)CN(C)N=O
Test System: CHINESE HAMSTER V-79, Strain/Indicator: V-79/OUABAIN, Metabolic Activation: HAMSTER, HEPATOCYTES, Method: CELL-MEDIATED
  mutagenic call: active; positive

## COC1C2C(=O)C34C(=O)c5c(O)cc(C)cc5C(=O)C35C3C(=O)C46C(=O)c4c(O)cc(C)cc4C(=O)C26C(C3OC)C15 (stereo unspecified)
[5]
  mutagenic call: inactive; negative
[6]
  mutagenic call: inactive; negative
[7]
  mutagenic call: inactive; negative

## CC(C)Cc1ccc(C(C)C(=O)O)cc1 (stereo unspecified)
Test System: AMES SALMONELLA TYPHIMURIUM, Strain/Indicator: TA97A, Metabolic Activation: NONE, Method: STANDARD PLATE
  mutagenic call: inactive; negative
Test System: AMES SALMONELLA TYPHIMURIUM, Strain/Indicator: TA97A, Metabolic Activation: RAT, LIVER, S-9, PHENOBARBITAL, Method: STANDARD PLATE
  mutagenic call: inactive; negative
Test System: AMES SALMONELLA TYPHIMURIUM, Strain/Indicator: TA98, Metabolic Activation: HAMSTER, LIVER, S-9, AROCLOR 1254, Method: STANDARD PLATE
  mutagenic call: inactive; negative
Test System: AMES SALMONELLA TYPHIMURIUM, Strain/Indicator: TA98, Metabolic Activation: MOUSE, LIVER, S-9, AROCLOR 1254, Method: STANDARD PLATE
  mutagenic call: inactive; negative
[1]
  mutagenic call: inactive; negative
[5]
  mutagenic call: inactive; negative
Test System: AMES SALMONELLA TYPHIMURIUM, Strain/Indicator: TA100, Metabolic Activation: HAMSTER, LIVER, S-9, AROCLOR 1254, Method: STANDARD PLATE
  mutagenic call: inactive; negative
Test System: AMES SALMONELLA TYPHIMURIUM, Strain/Indicator: TA100, Metabolic Activation: MOUSE, LIVER, S-9, AROCLOR 1254, Method: STANDARD PLATE
  mutagenic call: inactive; negative
Test System: AMES SALMONELLA TYPHIMURIUM, Strain/Indicator: TA100, Metabolic Activation: NONE, Method: STANDARD PLATE
  mutagenic call: inactive; negative
[6]
  mutagenic call: inactive; negative
Test System: AMES SALMONELLA TYPHIMURIUM, Strain/Indicator: TA100, Metabolic Activation: RAT, LIVER, S-9, PHENOBARBITAL, Method: STANDARD PLATE
  mutagenic call: inactive; negative
[2]
  mutagenic call: inactive; negative
Test System: AMES SALMONELLA TYPHIMURIUM, Strain/Indicator: TA102, Metabolic Activation: RAT, LIVER, S-9, PHENOBARBITAL, Method: STANDARD PLATE
  mutagenic call: inactive; negative
Test System: AMES SALMONELLA TYPHIMURIUM, Strain/Indicator: TA1535, Metabolic Activation: HAMSTER, LIVER, S-9, AROCLOR 1254, Method: STANDARD PLATE
  mutagenic call: inactive; negative
Test System: AMES SALMONELLA TYPHIMURIUM, Strain/Indicator: TA1535, Metabolic Activation: MOUSE, LIVER, S-9, AROCLOR 1254, Method: STANDARD PLATE
  mutagenic call: inactive; negative
[3]
  mutagenic call: inactive; negative
Test System: AMES SALMONELLA TYPHIMURIUM, Strain/Indicator: TA1535, Metabolic Activation: RAT, LIVER, S-9, AROCLOR 1254, Method: STANDARD PLATE
  mutagenic call: inactive; negative
Test System: AMES SALMONELLA TYPHIMURIUM, Strain/Indicator: TA1537, Metabolic Activation: HAMSTER, LIVER, S-9, AROCLOR 1254, Method: STANDARD PLATE
  mutagenic call: inactive; negative
Test System: AMES SALMONELLA TYPHIMURIUM, Strain/Indicator: TA1537, Metabolic Activation: MOUSE, LIVER, S-9, AROCLOR 1254, Method: STANDARD PLATE
  mutagenic call: inactive; negative
[4]
  mutagenic call: inactive; negative
[7]
  mutagenic call: inactive; negative
Test System: AMES SALMONELLA TYPHIMURIUM, Strain/Indicator: TA1538, Metabolic Activation: HAMSTER, LIVER, S-9, AROCLOR 1254, Method: STANDARD PLATE
  mutagenic call: inactive; negative
Test System: AMES SALMONELLA TYPHIMURIUM, Strain/Indicator: TA1538, Metabolic Activation: MOUSE, LIVER, S-9, AROCLOR 1254, Method: STANDARD PLATE
  mutagenic call: inactive; negative
Test System: AMES SALMONELLA TYPHIMURIUM, Strain/Indicator: TA1538, Metabolic Activation: NONE, Method: STANDARD PLATE
  mutagenic call: inactive; negative
Test System: AMES SALMONELLA TYPHIMURIUM, Strain/Indicator: TA1538, Metabolic Activation: RAT, LIVER, S-9, AROCLOR 1254, Method: STANDARD PLATE
  mutagenic call: inactive; negative
